# According to the supplement of paper PMC10702517:
# Counter-ions that a name gives are not always drawn. ± gives the standard deviation.
# Assay: chemical recovery from spiked human plasma; higher = better extraction
# Conditions: pooled human plasma
# [1] = extraction method: SPE only (HLB 96-well)
# [2] = extraction method: PES+SPE (3 d PDMS equilibration then HLB SPE)
# [3] = extraction method: solvent precipitation (ACN + hexane)
# [4] = extraction method: SPE only (HLB 96-well), PES comparison experiment
Compound,chemical recovery [1] [%],chemical recovery [2] [%],chemical recovery [3] [%],chemical recovery [4] [%]
CCCCCCCCCCCCOS(=O)(=O)O [Dodecyl sulfate],33.8 ± 0.79,,,
CCCCCCOC(=O)c1ccccc1C(=O)c1ccc(N(CC)CC)cc1O [Uvinul-A-Plus],26.5 ± 9.6,,,
CC(Oc1ccc(Oc2ncc(C(F)(F)F)cc2Cl)cc1)C(=O)O (stereo not drawn) [Haloxyfop-P],33.1 ± 3.1,41 ± 2.6,68.1 ± 2.8,
c1ccc2c(c1)sc1ccccc12 [Dibenzothiophene],16.2 ± 6.1,,,
c1ccc2[nH]ccc2c1 [Indole],8.76 ± 5.2,,52.5 ± 14,
CC1(C)O[C@@H]2C[C@H]3[C@@H]4CCC5=CC(=O)C=C[C@]5(C)[C@@]4(F)[C@@H](O)C[C@]3(C)[C@]2(C(=O)CO)O1 [Triamcinolone acetonide],,,,47.3 ± 4.9
CC(Oc1ccc(Oc2cnc3cc(Cl)ccc3n2)cc1)C(=O)O (stereo not drawn) [Quizalofop],28.1 ± 1.3,43.1 ± 5.6,67.8 ± 5.7,
CCN(CCC#N)c1ccc(N=Nc2c(Br)cc([N+](=O)[O-])cc2Br)cc1 [Disperse-Orange-61],39.7 ± 11,,80.2 ± 8.3,
CNCCCN1c2ccccc2CCc2ccccc21 [Desipramine],35.8 ± 2.3,1.49 ± 0.66,62.7 ± 6.1,
CC1CCN(CCCC(=O)c2ccc(F)cc2)CC1 [Melperon],35.9 ± 3,0.434 ± 0.15,61 ± 4.4,48.8 ± 6.8
NCCN1CCNCC1 [2-(Piperazin-1-yl)ethanamine],,,,1.9 ± 2.2
CS(=O)(=O)OC[C@H](O)[C@@H](O)COS(C)(=O)=O [Treosulfan],18.7 ± 3.8,7.98 ± 1.3,,
CCCCCCCCCCCCOC(=O)c1cc(O)c(O)c(O)c1 [Lauryl-gallate],21.9 ± 6.3,,,
O=C(O)c1ccccc1C(=O)OCc1ccccc1 [Monobenzyl-phthalate],57.7 ± 4.3,59.6 ± 9.9,65.3 ± 7.2,
"CC1(C)C(=O)NC(=O)NC1=O [5,5-Dimethylbarbituric-acid]",8.69 ± 8.3,5.81 ± 5,39.8 ± 10,
CC[N+](CC)(CC)CC [Tetraethylammonium],1.23 ± 0.72,,,
"O=c1[nH]sc2ccccc12 [1,2-Benzisothiazolinone]",10.7 ± 1.4,7.12 ± 0.96,5.44 ± 4.6,1.19 ± 2.4
O=S(=O)(O)C(F)(F)C(F)(F)C(F)(F)C(F)(F)C(F)(F)C(F)(F)C(F)(F)F [Perfluoroheptanesulfonic-acid],35.6 ± 2,38.6 ± 6.2,61.6 ± 3.8,
O=C(O)C(F)(F)C(F)(F)C(F)(F)OC(F)(F)F [Perfluoro-4-methoxybutanoic-acid],36.7 ± 2.8,43.5 ± 3.9,78.7 ± 3.5,
CCCCCCCCCCCCCCCC(=O)NCCO [Palmitoylethanolamide],33.5 ± 8.8,,,
"CCN(CC)c1ccccc1 [N,N-Diethylaniline]",5.76 ± 3.4,0.987 ± 1.6,0.0912 ± 0.079,
CN(C)S(=O)(=O)c1ccc(N)cc1 [4-Amino-NN-dimethylbenzenesulfonamide],45.4 ± 4.2,51.6 ± 4,77.3 ± 4,
CN1COCN(Cc2cnc(Cl)s2)/C1=N\[N+](=O)[O-] [Thiamethoxam],50 ± 3.5,55.7 ± 4.8,73 ± 2.7,

Compound,chemical recovery [1] [%],chemical recovery [2] [%],chemical recovery [3] [%],chemical recovery [4] [%]
CCOC(=O)C(C#N)=C(c1ccccc1)c1ccccc1 [Etocrylene],36.7 ± 2.9,35.4 ± 4.9,49.9 ± 9.2,
COc1cnc(OC)n2nc(NS(=O)(=O)c3c(OCC(F)F)cccc3C(F)(F)F)nc12 [Penoxsulam],42.2 ± 4.3,53.1 ± 7.8,78.9 ± 3.6,
CCCCCCCCCCS(=O)(=O)O [1-Decanesulfonic-acid],31.5 ± 2.9,42 ± 5.2,61.5 ± 1.9,
"O=P(OCC(Br)CBr)(OCC(Br)CBr)OCC(Br)CBr (stereo not drawn) [Tris(2,3-dibromopropyl)phosphate]",14.8 ± 3.3,60.7 ± 8,,
O=S(=O)(O)C(F)(F)C(F)(F)C(F)(F)C(F)(F)F [Perfluorobutanesulfonic-acid],45.3 ± 3.3,49.5 ± 3.7,81.9 ± 2.1,
"N=C(Nc1ccccc1)Nc1ccccc1 [1,3-Diphenylguanidine]",34.5 ± 2.5,22.6 ± 3,59.5 ± 2.6,48.7 ± 4.8
CCNc1nc(N)nc(Cl)n1 [Desisopropylatrazine],38.9 ± 2.4,50.7 ± 4.7,,
CON(C)C(=O)Nc1ccc(Cl)c(Cl)c1 [Linuron],50.1 ± 0.84,46.9 ± 7.1,69.6 ± 2.5,50.2 ± 7.8
Cc1cc(=O)nc(C(C)C)[nH]1 [2-Isopropyl-6-methyl-pyrimidin-4-ol],34.6 ± 4,45.2 ± 5.9,77.2 ± 3.2,44.3 ± 8.5
Nc1ccccc1[N+](=O)[O-] [2-Nitroaniline],25.1 ± 5.2,,,
c1ccc2[nH]cnc2c1 [Benzimidazole],4.01 ± 3.3,16.9 ± 4.1,72 ± 2.6,
CC(C)[C@H](C(=O)O[C@H](C#N)c1cccc(Oc2ccccc2)c1)c1ccc(Cl)cc1 [Esfenvalerate],,,118 ± 16,
Cc1ccc2ccc3cccc4ccc1c2c34 [1-Methylpyrene],3.46 ± 0.94,,34 ± 4,
CSC1=N[C@@](C)(c2ccccc2)C(=O)N1Nc1ccccc1 [Fenamidone],57.8 ± 2.2,60.6 ± 12,79.4 ± 2.9,
CC(C)COC(=O)c1ccccc1C(=O)O [Mono-iso-butyl-phthalate],44.7 ± 3.3,,65.5 ± 6.9,
NNc1ccccn1 [2-Hydrazinopyridine],9.35 ± 5,0.622 ± 0.11,,
CCNS(=O)(=O)C(F)(F)C(F)(F)C(F)(F)C(F)(F)C(F)(F)C(F)(F)C(F)(F)C(F)(F)F [N-Ethylperfluorooctane-sulfonamide],2.91 ± 0.86,,,
C1CCC2CCCCC2C1 (stereo not drawn) [Decahydronaphthalene],,,,3.14 ± 1.3
"Cn1c(N)nc2c3cccnc3ccc21 [2-Amino-3-methyl-imidazo[4,5-f]quinoline (IQ)]",11.1 ± 1.8,,,
"Nc1ccc(Cc2ccc(N)c(Cl)c2)cc1Cl [2,2'-dichloro-4,4'-methylenedianiline]",47 ± 13,28.7 ± 6.4,71.3 ± 5.2,
O=C(O)c1cc(C(=O)O)cc([N+](=O)[O-])c1 [5-Nitroisophthalic-acid],50.5 ± 17,79.2 ± 17,0.332 ± 0.35,
CNC(=O)Oc1cccc2c1OC(C)(C)C2 [Carbofuran],43.6 ± 1.7,41.4 ± 4.8,47.2 ± 7,
O=C(NCCc1ncc(C(F)(F)F)cc1Cl)c1ccccc1C(F)(F)F [Fluopyram],,,67.8 ± 2.1,

Compound,chemical recovery [1] [%],chemical recovery [2] [%],chemical recovery [3] [%],chemical recovery [4] [%]
NC(=O)C(F)(F)C(F)(F)F [Pentafluoropropionamide],0.923 ± 0.9,9.12 ± 7.6,0.174 ± 0.24,
Nc1cccc2cc(S(=O)(=O)O)ccc12 [5-Aminonaphthalene-2-sulfonic acid],10.5 ± 3.9,,65 ± 2.7,18.3 ± 2.4
C[N+](C)(C)CC(O)CCl (stereo not drawn) [(3-Chloro-2-hydroxypropyl)trimethylammonium],1.05 ± 0.96,0.458 ± 0.03,,9.57 ± 8
"O=C(Nc1ccccc1)Nc1ccccc1 [1,3-Diphenylurea]",46.9 ± 3.4,65.9 ± 7.5,84.4 ± 7.3,
"Cc1cc(Cc2cc(C)cc(C(C)(C)C)c2O)c(O)c(C(C)(C)C)c1 [2,2'-Methylenebis(6-tert-butyl-p-cresol)]",7.83 ± 3.9,,,
CCC(C)(c1ccc(O)cc1)c1ccc(O)cc1 [Bisphenol-B],45.4 ± 1.4,63.4 ± 2,49.7 ± 3.2,
COCCOCCOCCOC [Triglyme],24.9 ± 4.5,,,
CN(C)C(=O)Nc1ccc(Cl)cc1 [Monuron],49.6 ± 3.1,60.2 ± 3.6,74.2 ± 1.8,
CC(C)(C)c1cc(-n2nc3ccccc3n2)c(O)c(C(C)(C)C)c1 [UV-320],3.34 ± 1,,,
O=C(Nc1ccc(F)cc1F)c1cccnc1Oc1cccc(C(F)(F)F)c1 [Diflufenican],31 ± 3.5,,52.3 ± 4.8,35.6 ± 6.6
N#CCNC(=O)c1cnccc1C(F)(F)F [Flonicamid],46.9 ± 1.9,53.1 ± 3.7,73.8 ± 3.3,
CCOP(=S)(OCC)SCCSCC [Disulfoton],4.52 ± 2,,,
"COc1cc(NC(=O)CC(C)=O)c(OC)cc1Cl [4'-Chloro-2',5'-dimethoxyacetoacetanilide]",43.2 ± 5.5,21.7 ± 5,,
COc1ccc2c(c1)[C@]13CCCC[C@@H]1[C@H](C2)N(C)CC3 [Dextromethorphan],39.3 ± 3.3,0.431 ± 0.16,70.1 ± 5.1,
O=S(=O)(O)C(F)(F)C(F)(F)C(F)(F)C(F)(F)C(F)(F)F [Perfluoropentanesulfonic-acid],36.5 ± 4.8,47.1 ± 4.2,72.9 ± 3.6,
CC(=O)N1CCOCC1 [4-Acetylmorpholine],3.35 ± 3.7,,,
CCc1c(Br)c(Br)c(Br)c(Br)c1Br [Pentabromoethylbenzene],3.34 ± 1.2,53.3 ± 3.7,,
CCN(CCO)CCCC(C)Nc1ccnc2cc(Cl)ccc12 (stereo not drawn) [Hydroxychloroquine],,,,9.45 ± 7.5
Cc1cc(Cl)ccc1OCCCC(=O)O [MCPB],35.9 ± 1.6,44.6 ± 2,66.9 ± 4.5,
CCCC1CC(C(=O)NC(C(C)Cl)C2OC(SC)C(O)C(O)C2O)N(C)C1 (stereo not drawn) [Clindamycin],37.9 ± 2.5,36.7 ± 3.7,65.5 ± 3.8,
Cc1c(COC(=O)C2C(/C=C(\Cl)C(F)(F)F)C2(C)C)cccc1-c1ccccc1 (stereo not drawn) [Bifenthrin],0.536 ± 0.24,,18.9 ± 3.9,
C[C@H](CCC(=O)O)[C@H]1CC[C@H]2[C@@H]3C(=O)C[C@@H]4C[C@H](O)CC[C@]4(C)[C@H]3CC[C@]12C [7-Oxolithocholic-acid],38.6 ± 2.2,51.1 ± 5.2,65.4 ± 3.4,
